In patent US5756527A, “Imidazole derivatives useful as modulators of multi drug resistances” (Ontogen Corporation, priority 1997, dated 1998):

Tests used:
[1] = test system: CEM/VLB1000; test: [3H]-vinblastine (VLB) accumulation assay; assay type: cell-based; conditions: midpoint of minimum and maximum increase in accumulation of 3H-vinblastine (275 nM), 3 hours at 37° C.
Description: ^3 H-vinblastine accumulation was also measured in the CEM/VLB1000 cell line. Corning Easy-Wash 96 well plates were pretreated with PBS and 1% BSA for 60 minutes and then removed. CEM/VLB1000 cells were seeded at 2×10^5, 40 μL volume. Plates were incubated at 37° C. for 30-60 minutes prior to use. The reference reversing agent, verapamil, or the compound of the present invention was added to the well followed by addition of media containing ^3 H-vinblastine (final concentration=275nM). Plates were allowed to incubate for 3 hours at 37° C. Cells were harvested onto pretreated Wallace filtermats A (pretreated with 0.1% polyethyleneimine) using a TomTek harvester-96. After filtering, the filtermats were allowed to dry completely. Meltix B scintillant was then added to the filtermats. The filters were then placed in a 90° C. oven for approximately 3-5 minutes and then removed. Scintillant was allowed to solidify on the filtermats. Filtermats were then placed in sample bags and read on a Wallace BetaPlate scintillation counter. The effects of compounds of the present invention in the cytotoxicity potentiation assays and vinblastine (VLB) accumulation assay are given in the Table below:
^2 Values presented are the midpoint (EC50) of the minimum and
maximum increase in accumulation of ^3 Hvinblastine caused by the
specific compound of the present invention.

[2] = test system: CEM/VLB1000; test: Cytotoxicity potentiation (alamar blue) of vinblastine in multidrug-resistant cells; assay type: cell-based; conditions: midpoint of minimum and maximum cytotoxicity induced by 3-5 μg/mL vinblastine and compound, 48 h
Description: Multidrug-resistant cell lines are easily obtainable for in vitro determination of drug sensitization by compounds of the present invention. In vitro potentiation of antineoplastic cytotoxicity by the imidazole derivatives of the present invention was measured in both CEM/VLB1000 and SK/VLB1000 cell lines. The multidrug resistant cell lines were obtained from Dr. Victor Ling, Ontario Cancer Institute, Toronto, Canada. The CEM/VLB 1000 cell line was maintained as a suspension in minimum essential medium supplemented with 10% fetal bovine serum in a humidied atmosphere of 95% air and 5% CO2 while the SK/VLB 1000 cell line was maintained as adherent cells using the identical medium conditions as the CEM cells. The CEM/VLB 1000 cells were seeded at a density of 5×10^4 cells/well in a 96 well microtiter plate while the SK/VLB 1000 cell line was seeded at a density of 2,500 cells/well after trypsinization. Vinblastine (5 μg/mL, for the CEM cells) or Taxol (3 μg/mL, for the SK cells) and compound (0.01 to 50 μM) were added directly to the wells. After an incubation of 48 hours in presence of drug, alamar blue (B. Page et al., Int. J. Oncol. 3: 473-476, 1993) was added (10 μL to the 200 μL cell suspension) for a period of 24 hours after which the fluorescence (excitation=530 nm, emission=590 nm) was read for each well using a "CytoFluor" microtiter fluorometer plate reader. This assay measures the effective concentration of compound necessary to enhance the cytotoxicity (EC50) of vinblastine in the MDR cell line.
^1 Values presented are the midpoint (EC50) of the minimum and
maximum cytotoxicity induced by 3-5 μg/mL vinblastine and the specific
compound of the present invention.

Row | SMILES | EC50 [1] | EC50 [2]
1 | COc1ccc(/C=C/C(=O)OC(C)C)cc1-c1nc(-c2ccc(N(C)C)cc2)c(-c2ccc(N(C)C)cc2)[nH]1 [Example 64, 2-[2-methoxy-5-(trans-i-propylpropenoate)phenyl]-4,5-bis(4-N,N-dimethylaminophenyl) imidazole] | 6000 nM | 390 nM
2 | CCN(CC)c1ccc(-c2nc(-c3ccc(/C=C/C(=O)OC)cc3)[nH]c2-c2ccc(N(CC)CC)cc2)cc1 [Example 49, 2-[4-(trans-methylpropenoate)phenyl]-4,5-bis(4-N,N-diethylaminophenyl) imidazole] | 5000 nM | 675 nM
3 | CNc1ccc(-c2[nH]c(-c3ccc(/C=C/C(=O)OC)cc3)nc2-c2ccc(NC(C)(C)C)cc2)cc1 [Example 48, 2-[4-(trans-methylpropenoate)phenyl]-4-[(4-N-t-butylamino)phenyl]-5-[(4-N-methylamino)phenyl] imidazole] | 1200 nM | 240 nM
4 | CCN(CC)c1ccc(-c2[nH]c(-c3ccc(/C=C/C(=O)OC)cc3)nc2-c2ccc(NC)cc2)cc1 [Example 40, 2-[4-(trans-methylpropenoate)phenyl]-4-[(4-N,N-diethylamino)phenyl]-5-[(4-N-methylamino)phenyl] imidazole] | 1100 nM | 226 nM

More lines, main results first:

Row | EC50 [1] | SMILES | EC50 [2]
5 | 2300 nM | CCCN(C)c1ccc(-c2nc(-c3ccc(/C=C/C(=O)OC)cc3)[nH]c2-c2ccc(NC)cc2)cc1 [Example 43, 2-[4-(trans-methylpropenoate)phenyl]-4-[(4-N-methyl-N-propylamino)phenyl]-5-[(4-N-methylamino)phenyl] imidazole] | 148 nM
6 | 10500 nM | CN(C)c1ccc(-c2nc(-c3ccc(/C=C/C(=O)OCc4ccccc4)cc3)[nH]c2-c2ccc(N(C)C)cc2)cc1 [Example 67, 2-[4-(trans-benzylpropenoate)phenyl]-4,5-bis[(4-N,N-dimethylamino)phenyl] imidazole] | 330 nM
7 | 4500 nM | CN(C)c1ccc(-c2nc(-c3ccc(/C=C/C(=O)OC(C)(C)C)cc3)[nH]c2-c2ccc(N(C)C)cc2)cc1 [Example 39, 2-[4-(trans-t-butylpropenoate)phenyl]-4,5-bis[(4-N,N-dimethylamino)phenyl] imidazole] | 590 nM
